# Results as given in US20100129478A1, “Plant Extracts and Methods and Uses Therefore” (priority 2005, published 2010).
# Tested on: human hepatic cell line HepG2
# Assay: Anti-cancer assay: cytotoxicity on HepG2 cells, trypan blue counting
# Assay type: cell-based
# Experimental: The cells were seeded at a density of 2.5×10^5 cell per ml in a 24 well plate. The cells were allowed to attach for 2 hour before adding the extracts at a concentration of 10 μg/ml. […] The cell viability was determined after 24 hours.
# Seed HepG2 at a cell density of 2.5×10^5 cells per ml. […] Incubate in 5% CO2 incubator at 37° C. for 48 hour. Trypsinize cell. Mix with 1 part trypan blue and 4 parts PBS and count the viable cells and the non-viable cells by counting the cells that has taken typan blue (non-viable cells) and the ones that has excluded it (viable cells).
smiles,measurement,value
O=C1O[C@H]([C@@H](O)CO)C(O)=C1O [ascorbic acid],No. of live cells,66.5
